Where “and” joins values, the source holds several entries; their conditions need not be identical. Identical values can stand only once. Like-named read-outs stand apart in the source and are kept apart here.
Legend:
[1] = molecular target: human recombinant H1 histamine receptors (Homo sapiens, UniProt P35367); assay: biochemical
Method: (Caliper Life Sciences, Hopkinton, Mass.). […] This study was performed using duplicate samples per data point (n=2).

Histamine (H1) = Histamine (H1) (Homo sapiens, UniProt P35367); assay: Histamine (H1) Binding Activity (Table I)
Sequence of Histamine (H1) (P35367 whole entry): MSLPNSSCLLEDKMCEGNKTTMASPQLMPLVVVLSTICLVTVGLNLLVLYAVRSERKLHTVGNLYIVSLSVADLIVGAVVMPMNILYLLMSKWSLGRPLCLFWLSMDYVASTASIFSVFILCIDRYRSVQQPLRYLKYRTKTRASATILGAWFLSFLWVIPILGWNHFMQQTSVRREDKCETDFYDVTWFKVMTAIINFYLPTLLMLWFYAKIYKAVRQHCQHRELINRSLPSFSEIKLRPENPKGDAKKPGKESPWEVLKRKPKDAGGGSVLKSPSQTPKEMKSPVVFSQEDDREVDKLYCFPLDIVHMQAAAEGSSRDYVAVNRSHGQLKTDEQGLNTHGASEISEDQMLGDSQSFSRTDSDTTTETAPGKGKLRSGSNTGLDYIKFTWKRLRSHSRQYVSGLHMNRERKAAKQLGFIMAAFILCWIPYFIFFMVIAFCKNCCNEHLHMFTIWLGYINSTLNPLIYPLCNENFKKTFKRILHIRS

Solubility = format: physicochemical; details: Table I
intact rat brain = details: in vivo, 30 seconds, 20 μM
[2] = test system: histamine-induced wheal and flare; assay: Wheal and flare further study, intravenous infusion; format: in vivo, rats; details: for antihistamine efficacy (wheal size): IV infusion, rats
Method: Briefly, rats received a continuous infusion via the jugular vein catheter for 60 minutes. […] Sixty minutes after the start of the infusion period, the rats were given four (4) interdermal (ID) injections of histamine ([…] in saline; dose 50 μL at 10 μg/rat). […] Twenty minutes after the histamine injections a caliper (Fowler Sylvac Ultra-Cal Mark III) was used to measure the wheal and flare (the diameter of the blue area). Two measurements of the diameter of the blue area at the site of histamine injection were made at 90 degrees from one another. […] Blood samples collected via cardiac puncture were used for diphenhydramine quantitation. The blood samples were placed in vacutainer tubes containing K2 EDTA. The rats were exsanguinated and the brain was rinsed in ice cold saline, wrapped in foil and frozen. The brain and the plasma samples were analyzed for drug content.

[3] = Pharmacokinetics and oral bioavailability in rats; format: in vivo; details: for half-life: read-out: T ½ (converted); for Vd: read-out: Vss; for bioavailability: read-out: F (oral bioavailability)
Method: For oral doses, 5 mg/kg if DPH-equivalent were used. […] Animals were dosed in triplicate by bolus injection to the femoral vein (IV) or oral gavage (PO), and whole blood was collected from the carotid artery from all animals at the appropriate time points for preparation of plasma samples. Quantitation of test article in plasma was performed by LC-MS/MS.

[4] = Blood-brain barrier penetration, brain:plasma ratio after tail vein injection; details: for Fold change (vs DPH): brain concentration, adjusted for DPH molar dose twice that of conjugates; for Kp at 1 h / concentration at 1 h: rat, intravenous; for Kp at 1 h: brain and plasma
Method: The four compounds were tested following intravenous injection to the tail vein in rats.
After ensuring a single rat remained viable following a test dose, the rats (4 per condition) were dosed by tail vein injection and were sacrificed one hour later. Blood was collected by cardiac puncture, and brain tissue was collected. Plasma was prepared and brain tissue homogenized to enable quantitation of drug content by LC-MS/MS.
Concentrations of each compound were determined and brain:plasma ratios calculated accordingly.

[5] = molecular target: T1, cloned hERG channels stably expressed in HEK cells (Homo sapiens, UniProt Q12809)
T1 sequence (Q12809 whole entry): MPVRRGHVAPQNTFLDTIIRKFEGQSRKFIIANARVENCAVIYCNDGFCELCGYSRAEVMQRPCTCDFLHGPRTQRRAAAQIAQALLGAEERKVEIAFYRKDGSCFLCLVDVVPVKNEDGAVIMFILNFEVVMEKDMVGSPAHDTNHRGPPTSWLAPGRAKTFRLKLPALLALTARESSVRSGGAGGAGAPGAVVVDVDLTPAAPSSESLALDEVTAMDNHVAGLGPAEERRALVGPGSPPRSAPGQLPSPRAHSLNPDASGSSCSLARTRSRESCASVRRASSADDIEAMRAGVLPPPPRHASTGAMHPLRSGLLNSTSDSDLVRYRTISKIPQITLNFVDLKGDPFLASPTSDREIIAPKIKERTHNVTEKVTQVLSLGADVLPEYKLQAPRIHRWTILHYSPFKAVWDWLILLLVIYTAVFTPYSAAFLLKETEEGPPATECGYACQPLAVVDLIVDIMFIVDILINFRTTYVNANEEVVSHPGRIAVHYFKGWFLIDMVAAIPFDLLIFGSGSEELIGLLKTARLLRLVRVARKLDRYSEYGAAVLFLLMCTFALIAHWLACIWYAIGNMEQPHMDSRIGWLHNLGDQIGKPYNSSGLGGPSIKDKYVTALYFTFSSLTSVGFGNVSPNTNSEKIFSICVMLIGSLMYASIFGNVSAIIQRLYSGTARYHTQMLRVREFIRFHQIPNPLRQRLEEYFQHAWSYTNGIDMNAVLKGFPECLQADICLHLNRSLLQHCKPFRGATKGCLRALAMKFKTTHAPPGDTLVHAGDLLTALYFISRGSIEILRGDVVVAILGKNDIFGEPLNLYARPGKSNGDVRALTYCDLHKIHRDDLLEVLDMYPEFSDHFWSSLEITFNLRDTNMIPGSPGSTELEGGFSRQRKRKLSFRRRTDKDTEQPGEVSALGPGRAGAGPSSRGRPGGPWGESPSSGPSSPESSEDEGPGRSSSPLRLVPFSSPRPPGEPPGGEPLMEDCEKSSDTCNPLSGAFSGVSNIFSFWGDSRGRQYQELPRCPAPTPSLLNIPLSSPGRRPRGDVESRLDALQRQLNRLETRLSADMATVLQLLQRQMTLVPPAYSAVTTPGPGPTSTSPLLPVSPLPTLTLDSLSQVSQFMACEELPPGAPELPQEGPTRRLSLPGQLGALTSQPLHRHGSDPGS

in vitro = details: human, hepatocytes
[6] = molecular target: T1, cloned hERG channels stably expressed in HEK cells; assay: hERG current inhibition, electrophysiology
[7] = test system: histamine-induced wheal and flare response; format: in vivo; details: for percent decrease in the wheal response (change in wheal size): 20 minute time-point, 0.1-0.3 mg/kg dose range
Method: Wheal and flare (erythema) experiments were performed in rats in order to measure in vivo activity of PEG-diphenhydramine. Intradermal injection of histamine produces a “wheal and flare” response in the skin as a result of histamine-induced mast cell degranulation, which is prevented by treatment with effective antihistamines.
Histamine was prepared from histamine diphosphate salt at 1 mg/mL (3.26 mM) in PBS, and was administered by intradermal injection 2.5 minutes after IV injection of the test article to the tail vein. At 5, 10, 20, 30 and 60 minutes post-injection, wheal sizes were measured using calipers and areas calculated (width×length, mm^2). Flare responses were measured by eye, and were graded on a scoring system of 1 (least significant)-5 (most severe).

rat hepatocyte = assay: Rat hepatocyte incubation
hepatocytes = assay: Hepatocyte metabolism, dog
human hepatocytes = assay: Metabolic stability in human hepatocytes; details: for metabolic breakdown / hepatic intrinsic clearance compared with diphenhydramine: human, hepatocytes
[8] = test system: spontaneously beating rat hearts; assay: In vitro safety pharmacology, spontaneously beating rat hearts
Source text: The objective of this study was to determine the potential effects of escalating concentrations of conjugates on electrophysiological (PQ, QRS, RR, QT, QTc), and mechanical (dLVP/dtmax and dLVP/dtmin) properties in spontaneously beating rat hearts.

guinea pig hearts [9] = test system: guinea pig hearts
guinea pig hearts [10] = assay: In vitro safety pharmacology, guinea pig hearts; details: rat and guinea pig preparations responded similarly
[11] = Ki ratio, repeated assay (asterisk), n=3
[12] = repeated assay (asterisk), n=3 samples per data point
[13] = rat, plasma, IV, 1 mg/kg DPH-equivalent
[14] = rat, plasma, IV, 1 mg/kg DPH-equivalent, read-out: Cmax
[15] = rat, plasma, oral 5 mg/kg vs IV 1 mg/kg
[16] = rat, plasma, oral, 5 mg/kg DPH-equivalent
[17] = rat, plasma, oral, 5 mg/kg DPH-equivalent, read-out: Cmax
[18] = rat, plasma, oral, 5 mg/kg DPH-equivalent, read-out: Tmax
[19] = one hour after tail vein injection, rats

Sequence of human recombinant H1 histamine receptors (P35367 whole entry): as the sequence (P35367 whole entry) above

With `COCCOCCOCCN(C)CCOC(c1ccccc1)c1ccccc1` [mPEG(3)-N-Diphenhydramine, mPEG3-N-diphenhydramine] the Fold vs parent [1, 11] was 7.8 and the Ki [1, 12] was 124 nM.

Work on `COCCOCCOCCOCCOCCOCCN(CCOC(c1ccccc1)c1ccccc1)CCOC(c1ccccc1)c1ccccc1` [mPEG6-N-(Diphenhydramine)2, mPEGn-N-(diphenhydramine)2] yielded an IC50 (Histamine (H1); read-out: IC50) of 6500 nM.

With `COCCOCCOCCOCCOCCN1CCN(C(c2ccccc2)c2ccc(Cl)cc2)CC1` (stereo not drawn) [PEG3-Hydroxyzine, mPEG3-Hydroxyzine] the IC50 (Histamine (H1); read-out: IC50) was 105 nM and the Solubility (Solubility) was “soluble”.

With `COCCOCCOCCN1CCN(C(c2ccccc2)c2ccc(Cl)cc2)CC1` (stereo not drawn) [PEG1 -Hydroxyzine, mPEG1-Hydroxyzine] the IC50 (Histamine (H1); read-out: IC50) was 70.3 nM and the Solubility (Solubility) was “soluble”.

With `Cc1cc(=O)n(-c2ccccc2)n1C` [Antipyrine] the “Normalized Brain Uptake Rate (Mean ± SD)” value (intact rat brain) was 17.4 ± 5.7 pmole/gm brain/sec.

For `COCCOCCOCCOCCOCCOCCOCCN(C)CCOC(c1ccccc1)c1ccccc1` [mPEG(7)-N-Diphenhydramine, mPEG7-N-diphenhydramine], the IC50 (Histamine (H1)) was 1730 nM, the Fold vs parent [1] was 20.1 and 28.7 and the Ki [1] was 605 nM and 454 nM. For the same compound, the “antihistamine efficacy (wheal size)” value [2] was “no efficacy in concentration range tested”, the AUC(0-inf) [3, 13] was 410 ng·h/mL and the clearance [3, 13] was 78.4 mL/min/kg. The Cmax [3, 14] was 882 ng/mL, the half-life [3, 13] was 25.8 min and the Vd [3, 13] was 2.07 L/kg. For the same compound, the bioavailability [3, 15] was 1.3%, the AUC(0-inf) [3, 16] was 26.6 ng·h/mL and the Cmax [3, 17] was 41.3 ng/mL. The half-life [3, 16] was 28.2 min, the Tmax [3, 18] was 15 min and the “Fold change (vs DPH)” value [4] was 26. It also gave a Kp at 1 h [4] of 0.2 to 1, a concentration at 1 h ([4]; brain) of 106 ± 27.1 ng/g and a concentration at 1 h ([4]; plasma) of 545 ± 57.9 ng/mL. It also gave an IC50 fold lower [5] of 4 fold, a half-life (in vitro) of 88.4 min and an IC50 [6] of 13000 nM.

In the case of `COCCOCCOCCOCCOCCOCCN(C)CCOC(c1ccccc1)c1ccccc1` [mPEG(6)-N-Diphenhydramine, mPEG6-N-diphenhydramine], the “flare response (visual scoring)” value ([7]; 0.03 mg/kg) is reported as “flare responses begin to return”, the wheal size ([7]; 0.03 mg/kg) is reported as “did not produce a detectable change in wheal size” and the “toxicity in first animal dosed” value ([7]; 1 mg/kg IV, rat) is reported as “suffered convulsions and died”. The wheal size ([7]; 0.1, 0.3 mg/kg) was “reduced the size of the wheal compared with control injection”, the “percent decrease in the wheal response (change in wheal size)” value [7] was “approximately 25%” and the “flare response (visual scoring)” value ([7]; highest concentrations) was “no detectable flare”. The AUCinf ([3]; IV, 1 mg/kg DPH-equivalent) was 405 ng·h/mL, the CL ([3]; IV, 1 mg/kg DPH-equivalent) was 73.32 mL/min/kg and the Cmax ([3]; IV, 1 mg/kg DPH-equivalent) was 790 ng/mL. The “T ½” value ([3]; IV, 1 mg/kg DPH-equivalent) was 22.8 min, the Vss ([3]; IV, 1 mg/kg DPH-equivalent) was 1.91 L/kg and the “F (oral bioavailability)” value ([3]; oral 5 mg/kg vs IV 1 mg/kg) was 2.4%. The AUCinf ([3]; oral, 5 mg/kg DPH-equivalent) was 49.1 ng·h/mL, the Cmax ([3]; oral, 5 mg/kg DPH-equivalent) was 81.9 ng/mL and the “T ½” value ([3]; oral, 5 mg/kg DPH-equivalent) was 23.4 min. The Tmax ([3]; oral, 5 mg/kg DPH-equivalent) was 15 min, the Brain concentration [4, 19] was 45.1 ± 4.4 ng/g and the Plasma concentration [4, 19] was 237.0 ± 41.1 ng/mL. For the same compound, the “metabolic breakdown compared with diphenhydramine” value (rat hepatocyte) was “slower metabolic breakdown than diphenhydramine”, the “hepatic intrinsic clearance compared with diphenhydramine” value (hepatocytes) was “faster than that of the parent diphenhydramine” and the “Half-Life (t1/2) (hepatocytes)” value (human hepatocytes; human hepatocytes, initial rate of loss of parent, n=1) was 122.9 min. The “metabolic breakdown / hepatic intrinsic clearance compared with diphenhydramine” value (human hepatocytes) was “faster than that of the parent diphenhydramine” and the IC50 ([6]; read-out: IC50 hERG channel, hERG current, HEK cells) was 3790 nM.

In the case of `OCCOCCN1CCN(C(c2ccccc2)c2ccc(Cl)cc2)CC1` (stereo not drawn) [Hydroxyzine, reference compound], the “Normalized Brain Uptake Rate (Mean ± SD)” value (intact rat brain) is reported as 355.89 ± 59.02 pmole/gm brain/sec.

In the case of `COCCOCCOCCOCCOCCN(C)CCOC(c1ccccc1)c1ccccc1` [mPEG5-N-diphenhydramine], the IC50 (Histamine (H1)) is reported as 600 nM, the Fold vs parent [1] is reported as 11.1 and 14.6 and the Ki [1] is reported as 333 nM and 230 nM. For the same compound, the “dromotropism (PQ and QRS)” value [8] was “greater negative dromotropism (lengthening of PQ and QRS) than diphenhydramine”, the “effect on coronary smooth muscle” value [8] was “vasodilatory effect” and the “ventricular repolarization (QT and QTc)” value [8] was “retard ventricular repolarization (QT and QTc) slightly more than diphenhydramine or quinidine”. The cardiodeceleration ([8]; 10^−5 M) was “greater cardiodeceleration”, the inotropism and lusitropism ([8]; 10^−5 M) was “striking positive inotropism and lusitropism” and the “antihistamine efficacy (wheal size)” value [2] was “demonstrated efficacy, but toxicity occurs at same concentrations”. The “fold weaker than diphenhydramine” value ([2]; efficacy at diphenhydramine-equivalent target plasma concentrations) was at least 10 fold, the AUC(0-inf) [3, 13] was 391 ng·h/mL and the clearance [3, 13] was 69.5 mL/min/kg. For the same compound, the Cmax [3, 14] was 821 ng/mL, the half-life [3, 13] was 19.8 min and the Vd [3, 13] was 1.98 L/kg. For the same compound, the bioavailability [3, 15] was 1.5%, the AUC(0-inf) [3, 16] was 29.4 ng·h/mL and the Cmax [3, 17] was 53.6 ng/mL. The half-life [3, 16] was 22.8 min, the Tmax [3, 18] was 15 min and the “Fold change (vs DPH)” value [4] was 28. For the same compound, the Kp at 1 h [4] was 0.2 to 1, the concentration at 1 h ([4]; brain) was 97.9 ± 32.9 ng/g and the concentration at 1 h ([4]; plasma) was 415 ± 78.7 ng/mL. For the same compound, the Coronary perfusion (guinea pig hearts [9]) was “increased dramatically”, the “QRS and PQ durations” value (guinea pig hearts [9]; guinea pig) was “increase only for 10^−5 M concentration” and the half-life (in vitro) was 44.2 min. For the same compound, the “metabolic breakdown / hepatic intrinsic clearance compared with diphenhydramine” value (human hepatocytes) was “moderately faster metabolic breakdown than diphenhydramine”.

Compound `COCCOCCOCCOCCOCCOCCNCCOC(c1ccccc1)c1ccccc1` [mPEG(6)-NH-Diphenhydramine, mPEG6-NH-diphenhydramine] has an IC50 (Histamine (H1); read-out: IC50) of 4120 nM, a Fold vs parent ([1]; Ki ratio, first run, n=2) of 62.5 and a Ki ([1]; first run, n=2 samples per data point) of 1890 nM.

`COCCOCCOCCOCCN(C)CCOC(c1ccccc1)c1ccccc1` [mPEG(4)-N-Diphenhydramine, mPEG4-N-diphenhydramine] showed a Fold vs parent [1, 11] of 12.7 and a Ki [1, 12] of 200 nM.

With `C=C[C@H]1C[N@@]2CC[C@H]1C[C@@H]2[C@@H](O)c1ccnc2ccc(OC)cc12` [quinidine] the QT (guinea pig hearts [10]) was “lengthened dramatically”.

For `COCCOCCOCCOCCOCCOCCOCCN1CCN(C(c2ccccc2)c2ccc(Cl)cc2)CC1` (stereo not drawn) [PEG5-Hydroxyzine, mPEG5-Hydroxyzine], the IC50 (Histamine (H1); read-out: IC50) was 76.7 nM and the Solubility (Solubility) was “soluble”.

In the case of `COCCOCCOCCOCCOCCNC(=O)COCCN1CCN(C(c2ccccc2)c2ccc(Cl)cc2)CC1` (stereo not drawn) [PEG5-Cetirizine, mPEG5-Cetirizine], the Solubility (Solubility) is reported as “soluble”.

With `CN(C)CCOC(c1ccccc1)c1ccccc1` [Diphenhydramine, reference compound] the “flare response (visual scoring)” value ([7]; 0.01 mg/kg) was “protective effect of diphenhydramine begins to decrease”, the “flare response (visual scoring)” value ([7]; 0.03 mg/kg) was “still suppresses the response effectively” and the “percent decrease in the wheal response (change in wheal size)” value [7] was “approximately 40%”. The wheal size ([7]; all doses tested) was “clear dose-dependent reduction”, the “flare response (visual scoring)” value ([7]; highest concentrations) was “no detectable flare” and the “antihistamine efficacy (wheal size)” value [2] was “dose dependent reduction in wheal size”.

Reference: patent US20130053400A1, “OLIGOMER-ANTIHISTAMINE CONJUGATES” (priority 2007, published 2013)
